In patent publication US5866576A, “Epoxide-containing compounds” (Cell Therapeutics, Inc., priority 1997, dated 1999):

How the values were obtained:
[1] = tested on: normal human bone marrow stromal cells (MSC); assay: human bone marrow stromal cell (MSC) proliferation in response to PDGF BB and IL-1α; type: cell-based; settings: Table III, PDGF BB 50 ng/ml and IL-1α 10 ng/ml
Description: This example illustrates the effects of inventive compounds nos. 1114, 1413, 1560, 1565, 1594, 2518, 2548R, 2548S and 3503 as effective inhibitors of normal human bone marrow stromal cells (MSC) proliferation in response to Platelet Derived Growth Factor BB (PDGF B) and IL-1α (50 and 10 ng/ml, respectively).
MSC were obtained and malintained in exponential growth, released from a growth plate with trypsin and plated into 96 well tissue culture plates in the presence of Fibroblast Growth Factor (FGFβ) for 48 hours. Growth media were removed and the cells were washed once with serum free media. The cells were then incubated 20-24 hours in serum free media.
After incubation, inventive compounds were added to the cells at the appropriate concentration and then the cells again incubated for 1 hour. PDGF B and IL-1α were added to the cells along with 3H-thymidine and the cells again incubated for an additional 24 hours.
After 24 hours of incubation, the cells were then harvested to assess incorporation of ^3 H-thymidine into DNA (proliferation). From each harvested cell culture, an IC-50 for each inventive compound tested was determined. Therefore, a lower reported IC-50 value is indicatilve of greater activity of the invention compounds in inhibiting MSC proliferation. Table III illustrates IC-50 values (in μM) for invention compounds inhibiting MSC proliferation at very low concentrations of compound.

Balb/3T3 cells = assay: Balb/3T3 cytotoxicity assay (BCECF-AM); type: cell-based; settings: FIGS. 8C, 8D
Description: In conjuction with the Balb/3T3 proliferation assay conducted above, a Balb/3T3 cytotoxicity assay was conducted to determine that the inhibition on proliferation was not due to cytotoxic effects. This assay is similar to the assay decribed above except tritiated thymidine was not added and after 18-24 hours incubation with PDGF/BB and a lOuM solution of 2,7-bis-(2-carboxyethyl)-5(and-6)carboxyflouresceinacetoxymethyl ester (BCECF-AM) was added for 30 minutes at 37° C. (BCECF is a compound that when cleaved by esterases, yields a fluorescent product in viable cells only, therefore providing a measure of viable cell numbers). Following sufficient incubation, BCECF is replaced with PBS and the plate examined with flourescence in a Millipore "cytofluor." The data is compiled and plotted.

murine splenocytes = assay: murine splenocyte proliferation co-stimulated by anti-mu and IL-4 (FIG. 11); type: cell-based; settings: Mus musculus, anti-mu / IL-4 12.5 ng/ml
Description: This example illustrates inhibitive effects of compounds nos. 1439, 1553S, 1560 and 1565 on murine splenocyte proliferation co-stimulated by anti-mu ([…]) and interleukin-4 (IL-4, 12.5 ng/ml). This in vitro assay, described above, is indicative of immune-suppressive/autoimmune treatment assay emphasizing humoral or B cell immune response. This assays are a predictive model for treatment or prevention of autoimmune diseases, such as diabetes, lupus, arthritis, and the like. The assay measures immunosuppressive activity of a drug at the B cell level. Spleens from adult mice contain immature B cells that express surface IgM. Cross-linking the surface IgM with an anti-mu antibody results in B cell proliferation. Additionally, this activation results in an increased expression of interleukin-4 receptors(IL-4R) on the surface of such cells. IL-4 acts as a growth factor for B cells and will increase the amount of proliferation induced by anti-mu.
A mixture of anti-mu and murine IL-4 is added to murine splenocytes to cause their proliferation. Mice spleens are obtained from adult mice and a single cell suspension is prepared in RPMI 1640 medium supplemented with 10% FCS. Cells (200,000) are plated into flat-bottomed wells and pre-incubated for 1-2 hours with various concentrations of inventive compound or PBS if it is a control. A mixture of anti-mu and murine is added to the wells at a final concentration of 5 μg/ml anti-mu and 12.5 ng/ml IL-4 and plates are incubated for three days. Proliferation is determined on the third day with a pulse of tritiated thymidine. The IC50 concentration of a particular drug is the concentration of drug that results in a 50% inhibition of the proliferation obtained from the positive control.

lymph node cells = assay: ovalbumin-induced proliferation in murine lymph cells (FIG. 13); type: cell-based, Balb/C mice; settings: Mus musculus, OVA 200 μg/ml
Excerpt: This example illustrates effects of the inventive compounds on ovalbumin-induced proliferation in murine lymph cells. Lymphnode cells contain a mixture of lymphoid cells: T-cells, B-cells and macrophages. Although proliferating cells in this assay are T-cells, the response obtained depends on type of antigen-presenting cell (e.g., macrophages) as well as elaboration of various immunoregulatory cytokines. Thus, this assay serves as a good model for T-cell mediated responses and as a valuable screening tool in identifying compounds useful in immunosuppressive therapeutic applications.
Murine T-cells proliferate in vitro in response to a soluble protein antigen if first primed with a corresponding antigen in vivo. This in vivo priming usually involves emulsifying the antigen in complete Freunds adjuvant and injecting this preparation into an appropriate site on a mouse. In this assay the antigen employed was chicken ovalbumin(OVA). Following emulsification in Freund's complete adjuvant, 50 μg of OVA were injected into both hind footpads of adult Balb/C mice. Fourteen days later the draining lymph nodes(popliteal) were removed and a single cell suspension was prepared in RPMI-1640 (10%FCS) medium. Two hundred thousand lymph node cells are then plated into wells of flat-bottom 96-well plates. Inventive compouds nos. 1410, 1553 (racemic), 1553(S), 1560 and 1565 were added to appropriate wells at various concentrations. OVA, at a final concentration of 200 μg/ml, was added to appropriate wells. Positive and negative controls were established on each plate, all assay variables being set up in quadruplicate.
The plates were incubated in a humidified, 5% CO2 incubator for 5 days. On the fifth day, 1 μCi of tritiated thymidine was added to each well and the plates were incubated for an additional 4 hours. The plates were harvested and the incorporation of 3H-TdR was determined in a liquid scintillation counter. The CPM data was then used to calculate experimental IC50 values for the compounds tested. Again, IC50 is defined as that concentration of compound resulting in 50% inhibition of 3H-TdR incorporation of the positive control.

**Q.** What does the source list for `Cn1cnc2c1c(=O)n(CCCCCCCC1CO1)c(=O)n2C` (stereo not shown) [Compound 1560, 1-(8,9-Oxidononyl)-3,7-dimethylxanthine]?
**A.** IC50 [1]: 6.6 µM; cytotoxic effects (Balb/3T3 cells): without exhibiting cytotoxic effects; IC50 (murine splenocytes): 29 µM; IC50 (lymph node cells): 34 µM
